Source: article PMC7772889, “Integrating biokinetics and in vitro studies to evaluate developmental neurotoxicity induced by chlorpyrifos in human iPSC-derived neural stem cells undergoing differentiation towards neuronal and glial cells” (Reproductive Toxicology (Elmsford, N.y.), 2020)

What was measured:
[1] = Chemical solubility and stability / recovery from medium (HPLC-UV); assay type: physicochemical
Protocol: The solubility and stability of CPF in water, medium and DMSO (the vehicle used to prepare stock solutions), were checked in preliminary assays, mimicking the actual experimental conditions: maximum concentration used; 37 °C; controlled pH; different incubation times. Samples in amber glass vials with screw caps were stored at −80 °C until the analysis for quantifying CPF by means of HPLC-UV was carried out.
Plastic-bound fraction was injected as such.

Adsorption to plastic = assay type: in vitro ADME
Protocol: Since CPF is a lipophilic chemical, its potential adsorption to the plastic wells was evaluated during the kinetic experiments. At the end of each experiment, the content (cells and medium) of each sample well was removed. Wells were washed twice with PBS, to remove possible cellular debris and 3 mL methanol (MeOH) were added. The plate was sealed with Parafilm and kept under gentle shaking at room temperature for 2h, before transferring the complete volume into amber glass vials with screw caps. The fractions were stored at −80 °C until HPLC analysis.

[2] = tested on: CYP and GST gene expression in hiPSC-derived NSCs undergoing differentiation; experiment: qPCR analysis of CYP and GST gene expression after CPF treatment; assay type: cell-based, human; settings: 21 μM CPF
Protocol: Analysis of gene expression by qPCR was performed in hiPSC-derived NSCs undergoing differentiation upon single and repeated treatment with 21 μM CPF or solvent control (0.1 % DMSO), collecting samples after 1, 3, 6 and 24 h (as shown in Fig. 2). RNA was isolated using the RNAqueous®-Micro Kit (ThermoFisher) according to manufacturer's instructions, and 500 ng of total RNA was reverse transcribed by using the High Capacity cDNA Reverse Transcription Kit (as directed, ThermoFisher).
qPCR reactions were run in duplicate using TaqMan® Gene Expression Master Mix (ThermoFisher) and the TaqMan gene expression assays shown in Table 1 (all from ThermoFisher).
Fluorescent emission was recorded in real-time using the ABI PRISM Sequence Detection System 7900HT (ThermoFisher). PCR amplification conditions consisted of 45 cycles with primers annealing at 60 °C. Relative RNA quantities were normalized to the reference genes GAPDH and Bactin and untreated cells were used to set calibrating conditions (ΔΔCt Method). Three biological replicates were performed.

[3] = tested on: hiPSC-derived NSCs undergoing differentiation; experiment: Neurite outgrowth by immunocytochemistry and high content imaging (β-III-tubulin); assay type: cell-based, human; settings: 14 days
Protocol: After 14 days of treatment with CPF at the nominal concentrations of 18.45, 21.21, 24.39, 28.05, 32.26, and 37.10 μM (37.10 μM equal to IC20), obtained considering a 1-to-1.15 dilution factor, cells were fixed with 4 % formaldehyde for 10 min and washed three times in PBS 1 × . After 15 min permeabilization with PBS 1X containing 0.1 % Triton-X-100 and 3,5 % bovine serum albumin (BSA), cells were further incubated with 3,5 % BSA and 1X PBS (blocking solution) for 15 min, to prevent nonspecific binding of antibodies, and then incubated at 4 °C overnight with primary antibodies in blocking solution. For synaptogenesis analysis, cells were stained with microtubule-associated protein-2 (MAP2, chicken, 1:3000, Abcam), synaptophysin (pre-synaptic marker) (SYP, rabbit, 1:300, Abcam), and post-synaptic density protein 95 (PSD95, mouse, 1:300, Abcam) specific antibodies. Neurite outgrowth and BDNF protein levels were assessed by staining the cells with an antibody specific for β-III-tubulin (mouse, 1:500, ThermoFisher), and one for BDNF (rabbit, 1:70, ThermoFisher). Cells were also stained for glial fibrillary acidic protein (GFAP, chicken, 1:500, Abcam). The following day, cells were washed three times with PBS 1X and incubated for 1 h at room temperature in the dark with DyLight-conjugated secondary antibodies (1:500, Abcam) and nuclei counterstained with 1 μg/mL DAPI (ThermoFisher). Mean fluorescence intensity and the relative percentages of immunocytochemically-defined cell types were quantified using the ArrayScan™ XTI High Content Platform (Cellomics) (ThermoFisher) and the ArrayScan algorithm 'Neuronal Profiling V4.1', as previously described. This algorithm applies a specific nucleus mask around the DAPI stained nucleus, distinguishing between live and pyknotic/dead cells, a cell body mask around the cell type antibody/antigen staining (i.e., MAP2, β-III-tubulin, or GFAP). Other masks were applied to identify the neurites, their branch points, and the fluorescence intensity levels of SYP and PSD95 puncta, or BDNF protein. […]

[4] = tested on: hiPSC-derived NSCs undergoing differentiation; experiment: Synaptogenesis by immunocytochemistry and HCI (overlapping SYP+/PSD95+ puncta); assay type: cell-based, human; settings: 14 days, concentrations ≤ IC20
Protocol: (§1) After 14 days of treatment with CPF at the nominal concentrations of 18.45, 21.21, 24.39, 28.05, 32.26, and 37.10 μM (37.10 μM equal to IC20), obtained considering a 1-to-1.15 dilution factor, cells were fixed with 4 % formaldehyde for 10 min and washed three times in PBS 1 × . After 15 min permeabilization with PBS 1X containing 0.1 % Triton-X-100 and 3,5 % bovine serum albumin (BSA), cells were further incubated with 3,5 % BSA and 1X PBS (blocking solution) for 15 min, to prevent nonspecific binding of antibodies, and then incubated at 4 °C overnight with primary antibodies in blocking solution. […] Neurite outgrowth and BDNF protein levels were assessed by staining the cells with an antibody specific for β-III-tubulin (mouse, 1:500, ThermoFisher), and one for BDNF (rabbit, 1:70, ThermoFisher). […] Mean fluorescence intensity and the relative percentages of immunocytochemically-defined cell types were quantified using the ArrayScan™ XTI High Content Platform (Cellomics) (ThermoFisher) and the ArrayScan algorithm 'Neuronal Profiling V4.1', as previously described. […] Other masks were applied to identify the neurites, their branch points, and the fluorescence intensity levels of SYP and PSD95 puncta, or BDNF protein. […]

BDNF protein = BDNF protein levels by immunocytochemistry and HCI; assay type: cell-based, human; settings: 14 days of CPF treatment, dose-dependent, vs solvent control
Protocol: as §1

[5] = tested on: hiPSC-derived NSCs undergoing differentiation; experiment: Spontaneous electrical activity by multi-well MEA; assay type: cell-based, human
Protocol: Cells were plated in complete ND medium onto polyethyleneimine (PEI)- and laminin-coated 24-well-MEA plates (24-Well Plate Glass (24W300/30G-288) V.232, 12 gold microelectrodes/well) (MultiChannel Systems) (5 × 10^5 cells/well), and on day 7 of differentiation cells were treated with CPF at 21 μM or solvent control (0.1 % DMSO) for 14 days. Electrical activity was evaluated before adding CPF (0d) or solvent control, and monitored after 3, 7, 10 and 14 days of treatment (Fig. 2). Representative electrode recordings were considered for the analysis of spike rate (number of spikes/sec), burst count (considering a burst as a train of at least 5 spikes occurring within 100 millisec), and network burst count (the number of bursts that resulted synchronized among all 12 electrodes). Electrical activity was recorded using the Multi-well MEA-System, considering a sampling rate of 20,000 Hz, a low-pass filter cutoff frequency of 3500 Hz, and a high-pass filter cutoff frequency of 100 Hz. Data represent the average of at least three biological replicates.

[6] = tested on: hiPSC-derived NSCs undergoing differentiation; parameters: method as in PMID 32093744; settings: 14-day treatment, resazurin, cited from earlier work
[7] = tested on: hiPSC-derived NSCs undergoing differentiation; parameters: method as in PMID 32093744; settings: 14-day treatment; cited from earlier work
[8] = cited from earlier work
[9] = 21 μM (IC5), significant after 7-day treatment

CCOP(=S)(OCC)Oc1nc(Cl)c(Cl)cc1Cl [CPF, Chlorpyrifos]
Solubility and stability in aqueous medium solutions and DMSO ([1]; maximum concentration, 37 °C, controlled pH, different incubation times): soluble and chemically stable | Recovery from medium ([1]; serum-free medium): 108.2 ± 18.6% | Bound-to-plastic fraction (Adsorption to plastic; first day of treatment): 0−8.4% | Bound-to-plastic fraction (Adsorption to plastic; last day of treatment): 7.5−16.5% | CYP-2C9 gene expression ([2]; first day of treatment): tendency towards upregulation | GST gene expression ([2]; first day of treatment): did not change | CYP-1A1 gene expression ([2]; first day of treatment, after 3 h, 6 h and 24 h): Up-regulation | GST-A4 gene expression ([2]; first day, after 6 h treatment): modest decrease | CYP gene expression ([2]; repeated treatment): did not significantly change | GST gene expression (all analysed GST genes) ([2]; repeated treatment): significant downregulation | CYP-2C19 gene expression ([2]; repeated treatment, after 1 h): transient upregulation | length of neurites ([3]; concentrations ≤ IC20): not significantly affected | number of branch points/neurite (neurite complexity) ([3]; concentrations ≤ IC20): lower number of branch points/neurite | number of neurites/neuron ([3]; concentrations ≤ IC20 (18.45-37.10 μM)): concentration dependent decrease | number of synapses (co-localization of SYP+/PSD95+ puncta) [4]: remarkable dose-dependent decrease | increase of BDNF protein levels (BDNF protein): ≤ 55% | number of bursts [5, 9]: modest decrease | spike rate [5, 9]: modest decrease | number of synchronized network bursts ([5]; 21 μM, starting from the 10th day of treatment): decrease | IC5 (nominal concentration causing 5 % decrease of viability) [6]: 21 µM | IC20 ([6]; nominal concentration, read-out: IC20 (viability)): 37.1 µM | in vitro nominal LOAEC for synaptogenesis [7]: 21 µM | exposure in new-borns, concentration in blood [8]: up to 4.9 μM | exposure in new-borns, concentration in meconium [8]: 23.6 µM
